From patent US12655116B2, “Substituted isophthalic acid diamides” (Bayer Aktiengesellschaft, priority 2020, dated 2026)

How the values were obtained:
LOLRI = experiment: Post-emergence herbicidal action against LOLRI; type: in vivo, Lolium rigidum; conditions: Lolium rigidum, 504 h, dosage 80 g/ha
Method in brief: (§1)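 Weeds in sandy loam soil received a post-emergence spray at the one-leaf stage. Compounds were applied as WP or EC in water, 600 to 800 l/ha, with 0.2% wetting agent. Activity in % was judged visually after roughly 3 weeks against untreated plants.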

VIOTR [1] = experiment: Pre-emergence herbicidal action against VIOTR; type: in vivo, Viola tricolor; conditions: Viola tricolor, 504 h
Method in brief: (§2)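 Visual rating at 3 weeks vs untreated pots; 0–100% scale, 100% = plants died. Treatment: aqueous WP/EC spray onto covering soil, 600–800 l/ha, 0.2% wetter, seeds in sandy loam.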

SETVI = experiment: Pre-emergence herbicidal action against SETVI; type: in vivo, Setaria viridis; conditions: Setaria viridis, 504 h
Method in brief: as §2

ECHCG [2] = experiment: Pre-emergence herbicidal action against ECHCG; type: in vivo, Echinochloa crus-galli; conditions: Echinochloa crus-galli, 504 h
Method in brief: as §2

AVEFA [3] = experiment: Post-emergence herbicidal action against AVEFA; type: in vivo, Avena fatua; conditions: Avena fatua, 504 h, visual assessment about 3 weeks after treatment, 100% = plants have died, 0% = like control plants
Method in brief: as §1

VIOTR [4] = experiment: Post-emergence herbicidal action against VIOTR; type: in vivo, Viola tricolor; conditions: Viola tricolor, 504 h, 80 g/ha
Method in brief: as §1

VERPE [5] = experiment: Post-emergence herbicidal action against VERPE; type: in vivo, Veronica persica; conditions: Veronica persica, 504 h
Method in brief: as §1

HORMU [6] = experiment: Pre-emergence herbicidal action against HORMU; type: in vivo, Hordeum murinum; conditions: Hordeum murinum, 504 h, pre-emergence
Method in brief: as §2

STEME [7] = experiment: Post-emergence herbicidal action against STEME; type: in vivo, Stellaria media; conditions: Stellaria media, 504 h
Method in brief: as §1

ALOMY [8] = experiment: Pre-emergence herbicidal action against ALOMY; type: in vivo, Alopecurus myosuroides; conditions: Alopecurus myosuroides, 504 h, pre-emergence
Method in brief: as §2

POLCO [9] = experiment: Post-emergence herbicidal action against POLCO; type: in vivo, Polygonum convolvulus; conditions: Fallopia convolvulus, 504 h
Method in brief: as §1

MATIN [10] = experiment: Pre-emergence herbicidal action against MATIN; type: in vivo, Matricaria inodora; conditions: Tripleurospermum inodorum, 504 h
Method in brief: as §2

VERPE [11] = experiment: Pre-emergence herbicidal action against VERPE; type: in vivo, Veronica persica; conditions: Veronica persica, 504 h, dosage 320 g/ha
Method in brief: as §2

AMARE [12] = experiment: Post-emergence herbicidal action against AMARE; type: in vivo, Amaranthus retroflexus; conditions: Amaranthus retroflexus, 504 h, visual assessment about 3 weeks after treatment, 100% = plants have died, 0% = like control plants
Method in brief: as §1

MATIN [13] = experiment: Post-emergence herbicidal action against MATIN; type: in vivo, Matricaria inodora; conditions: Tripleurospermum inodorum, 504 h
Method in brief: as §1

STEME [14] = experiment: Pre-emergence herbicidal action against STEME; type: in vivo, Stellaria media; conditions: Stellaria media, 504 h
Method in brief: as §2

HORMU [15] = experiment: Post-emergence herbicidal action against HORMU; type: in vivo, Hordeum murinum; conditions: Hordeum murinum, 504 h
Method in brief: as §1

ALOMY [16] = experiment: Post-emergence herbicidal action against ALOMY; type: in vivo, Alopecurus myosuroides; conditions: Alopecurus myosuroides, 504 h, visual assessment about 3 weeks after treatment vs untreated controls
Method in brief: as §1

AMARE [17] = experiment: Pre-emergence herbicidal action against AMARE; type: in vivo, Amaranthus retroflexus; conditions: Amaranthus retroflexus, 504 h, 100% = plants have died, 0% = like control plants
Method in brief: as §2

POLCO [18] = experiment: Pre-emergence herbicidal action against POLCO; type: in vivo, Polygonum convolvulus; conditions: Fallopia convolvulus, 504 h, dosage 320 g/ha
Method in brief: as §2

ECHCG [19] = experiment: Post-emergence herbicidal action against ECHCG; type: in vivo, Echinochloa crus-galli; conditions: Echinochloa crus-galli, 504 h
Method in brief: as §1

AVEFA [20] = experiment: Pre-emergence herbicidal action against AVEFA; type: in vivo, Avena fatua; conditions: Avena fatua, 504 h, pre-emergence
Method in brief: as §2

[21] = 320 g/ha, scored visually after 3 weeks, 100% = plants have died, 0% = like control plants

Question: How did the pest or weed control at 80 g/ha (LOLRI) turn out when `CNC(=O)c1c(C(F)F)ccc(C(=O)Nc2nnnn2C)c1Cl` [Example 1-147] was run?
Answer: 90%

Question: And the pest or weed control at 80 g/ha (VIOTR [1]; dosage 80 g/ha)?
Answer: 100%

Question: What about the pest or weed control at 320 g/ha (VIOTR [1]; dosage 320 g/ha) of the same molecule?
Answer: 100%

Question: What about the pest or weed control at 80 g/ha (SETVI; dosage 80 g/ha) of the same molecule?
Answer: 100%

Question: What about the pest or weed control at 320 g/ha (SETVI; dosage 320 g/ha) of the same molecule?
Answer: 100%

Question: And the pest or weed control at 80 g/ha (ECHCG [2]; 80 g/ha)?
Answer: 100%

Question: And the pest or weed control at 320 g/ha (ECHCG [2]; 320 g/ha)?
Answer: 100%

Question: And the pest or weed control at 20 g/ha (AVEFA [3]; 20 g/ha)?
Answer: 90%

Question: And the pest or weed control at 80 g/ha (AVEFA [3]; 80 g/ha)?
Answer: 90%

Question: And the pest or weed control at 80 g/ha (VIOTR [4])?
Answer: 80%

Question: And the pest or weed control at 20 g/ha (VERPE [5]; 20 g/ha)?
Answer: 90%

Question: And the pest or weed control at 80 g/ha (VERPE [5]; 80 g/ha)?
Answer: 90%

Question: And the pest or weed control at 80 g/ha (HORMU [6]; 80 g/ha)?
Answer: 90%

Question: And the pest or weed control at 320 g/ha (HORMU [6]; 320 g/ha)?
Answer: 100%

Question: And the pest or weed control at 20 g/ha (STEME [7]; 20 g/ha)?
Answer: 80%

Question: What about the pest or weed control at 80 g/ha (STEME [7]; 80 g/ha) of the same molecule?
Answer: 90%

Question: And the pest or weed control at 80 g/ha (ALOMY [8]; 80 g/ha, scored visually after 3 weeks vs untreated controls (100% = plants have died, 0% = like control plants))?
Answer: 90%

Question: And the pest or weed control at 320 g/ha (ALOMY [8]; [21])?
Answer: 100%

Question: What about the pest or weed control at 20 g/ha (POLCO [9]; dosage 20 g/ha) of the same molecule?
Answer: 90%

Question: What about the pest or weed control at 80 g/ha (POLCO [9]; dosage 80 g/ha) of the same molecule?
Answer: 90%

Question: And the pest or weed control at 80 g/ha (MATIN [10]; dosage 80 g/ha)?
Answer: 90%

Question: And the pest or weed control at 320 g/ha (MATIN [10]; dosage 320 g/ha)?
Answer: 100%

Question: And the pest or weed control at 320 g/ha (VERPE [11])?
Answer: 90%

Question: What about the pest or weed control at 20 g/ha (AMARE [12]; 20 g/ha) of the same molecule?
Answer: 90%

Question: And the pest or weed control at 80 g/ha (AMARE [12]; 80 g/ha)?
Answer: 90%

Question: What about the pest or weed control at 20 g/ha (MATIN [13]; dosage 20 g/ha) of the same molecule?
Answer: 100%

Question: What about the pest or weed control at 80 g/ha (MATIN [13]; dosage 80 g/ha) of the same molecule?
Answer: 100%

Question: And the pest or weed control at 80 g/ha (STEME [14]; dosage 80 g/ha)?
Answer: 100%

Question: And the pest or weed control at 320 g/ha (STEME [14]; dosage 320 g/ha)?
Answer: 100%

Question: And the pest or weed control at 20 g/ha (HORMU [15]; dosage 20 g/ha)?
Answer: 80%

Question: And the pest or weed control at 80 g/ha (HORMU [15]; dosage 80 g/ha)?
Answer: 90%

Question: And the pest or weed control at 20 g/ha (ALOMY [16]; dosage 20 g/ha)?
Answer: 80%

Question: What about the pest or weed control at 80 g/ha (ALOMY [16]; dosage 80 g/ha) of the same molecule?
Answer: 90%

Question: What about the pest or weed control at 80 g/ha (AMARE [17]; 80 g/ha, scored visually after 3 weeks vs untreated controls) of the same molecule?
Answer: 100%

Question: And the pest or weed control at 320 g/ha (AMARE [17]; 320 g/ha, scored visually after 3 weeks)?
Answer: 100%

Question: And the pest or weed control at 320 g/ha (POLCO [18])?
Answer: 90%

Question: And the pest or weed control at 20 g/ha (ECHCG [19]; dosage 20 g/ha)?
Answer: 90%

Question: And the pest or weed control at 80 g/ha (ECHCG [19]; dosage 80 g/ha)?
Answer: 90%

Question: What about the pest or weed control at 80 g/ha (AVEFA [20]; 80 g/ha) of the same molecule?
Answer: 100%

Question: And the pest or weed control at 320 g/ha (AVEFA [20]; [21])?
Answer: 100%
